Patent publication US6685962B2, “Gastroretentive controlled release pharmaceutical dosage forms” (priority 1999, dated 2004)

Test: Riboflavin plasma pharmacokinetics and bioavailability after IV bolus, oral solution or GRDF
Assay type: in vivo, Beagle dogs
Conditions: for log-terminal slope of plasma riboflavin concentration: 100 mg riboflavin-5-phosphate, dogs n=6
Description: Each dog received the drug by each of these modes, with at least one-week washout period between every phase of the study.
Following each administration blood samples (4 ml) were collected into 5 ml heparinized test tubes wrapped in aluminum foil (to protect from light), for modes (1) and (2) at times 0, 0.25, 0.5, 1, 1.5, 2, 2.5, 3, 3.5, 4, 6, 8, 11, 24 hours, and for mode (3) at times 0, 0.5, 1, 1.5, 2, […], 3, 4, 6, 9, 12, 15, 18, 21, 24, 27, 30, 33, 36 and 48 hours. Plasma was separated following centrifugation (4000 rpm for 10 minutes), and stored at −20° C. pending analysis.
Riboflavin plasma concentrations were determined by an HPLC method as follows: 100 μl trichloroacetic acid (20%) was mixed with 300 μl of a plasma sample. Following centrifugation of the mixture (13,000 rpm for 10 minutes) the supernatant was separated and incubated for 10 min at 85° C. After additional centrifugation (13,000 rpm for 10 minutes) 60 μl of the solution were injected to C18 HPLC column, with mobile phase that consisted of 15% acetonitrile in solution A (10 mmol potassium dihydrogen phosphate/L and 5 mmol hexanesulfonic acid/L, brought to a pH of 3 with orthophosphoric acid) at a flow rate of 1 ml/min. A spectrofluorometric detector set at 445 nm for excitation wavelength and 530 nm for emission wavelength detected the drug. Drug concentrations were determined with appropriate standard curves.

Cc1cc2nc3c(=O)[nH]c(=O)nc-3n(C[C@H](O)[C@H](O)[C@H](O)CO)c2cc1C [riboflavin]
bioavailability (Beagle, dog, plasma, 100 mg, oral administration (oral solution), dogs, read-out: absolute bioavailability of riboflavin): 5.8 ± 2.2% | rate of riboflavin elimination (concluded from iv and PO administration, dogs): 0.4 h⁻¹ | log-terminal slope of plasma riboflavin concentration (intravenous bolus): 0.44±0.13 hr^−1 | log-terminal slope of plasma riboflavin concentration (oral solution): 0.35±0.14 hr^−1
